Test [1] is described as follows: Luminescence Cell-Based Dose Confirmation HTS to Identify Activators of 5'UTR Stem-Loop Driven Alpha-Synuclein mRNA Translation in H4 Neuroglioblastoma Cells. [Related pubchem assays: 1829 (Project Summary), 1814 (Primary HTS)]. In kind it is functional.
The nature of test [2]: Luminescence Cell-Based Dose Response HTS to Identify Activators of Luciferase Translation or Activity in H4 […] Cells. [Related pubchem assays: 1829 (Project Summary), 1814 (Primary HTS)]. Format: functional.
Another test relates to H4. Nature of the test: Luminescence Cell-Based Dose Response HTS to Identify Activators of 5'UTR Stem-Loop Driven Prion Protein mRNA Translation in H4 Neuroglioblastoma Cells. [Related pubchem assays: 1829 (Project Summary), 1814 (Primary HTS)]. In kind it is functional. The note with it: Homo sapiens.
Test [3] addresses FAD-linked sulfhydryl oxidase ALR (Homo sapiens, UniProt P55789). Nature of the test: ALR-catalysed DTT oxidation blockers – biochemical, H2O2 detection, luminescence, cherry-pick, dose response (AID 493248).
The subject of test [4] is Streptococcus sp. 'group A'. Nature of the test: Streptococcus pyogenes SK(-)GAS viability under kanamycin – luminescence, BacTiterGlo, confirmation, counter-screen for streptokinase expression inhibitor project, dose response (AID 1900). In kind it is functional, organism-based. Background: The purpose of a counterscreen is to sort out artefacts and off-target activity.

The next test deals with T1, Streptokinase A (Streptococcus pyogenes serotype M1, UniProt P10520).
T1 sequence (P10520 whole entry): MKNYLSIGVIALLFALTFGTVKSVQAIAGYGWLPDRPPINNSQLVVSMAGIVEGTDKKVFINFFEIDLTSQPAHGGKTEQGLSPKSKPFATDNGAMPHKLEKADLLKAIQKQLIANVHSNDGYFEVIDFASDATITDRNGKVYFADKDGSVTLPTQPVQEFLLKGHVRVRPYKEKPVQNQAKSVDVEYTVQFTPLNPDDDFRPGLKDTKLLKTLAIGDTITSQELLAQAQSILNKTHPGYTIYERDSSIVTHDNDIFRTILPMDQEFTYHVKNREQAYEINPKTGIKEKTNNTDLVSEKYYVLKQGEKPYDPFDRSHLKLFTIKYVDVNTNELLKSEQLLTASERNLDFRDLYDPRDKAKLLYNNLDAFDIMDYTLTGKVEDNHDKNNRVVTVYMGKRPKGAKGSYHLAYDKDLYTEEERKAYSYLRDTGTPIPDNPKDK
The test can be described thus: viability-normalized secreted streptokinase activity reduction – plasminogen activation absorbance, OD405, dose response (AID 1914).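 Further: secreted streptokinase activity via plasminogen activation per viability signal from cell pellet.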 In kind it is functional, Streptococcus pyogenes M1 GAS.

For another test, the system named is Streptococcus. Nature of the test: GAS UMAA2166 growth inhibition – luminescence, BacTiterGlo, counter-screen for streptokinase expression inhibitor project, dose response (AID 1915).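 Further: potency for reduction of bacterial viability or growth.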 In kind it is functional, organism-based.
A further test has as its target Cytochrome P450 2C19 (Homo sapiens, UniProt P33261). Nature of the test: Cytochrome panel assay with activity outcomes. Panel member name: p450-cyp2c19 Compounds with AC50 equal or less than 10 uM are considered active. In kind it is functional. The note with it: read-out: AC50.
The target in a further test is T2, Cytochrome P450 1A2 (Homo sapiens, UniProt P05177).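 Further: PubChem cytochrome P450 panel assay, CYP1A2 panel member.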
T2 sequence (P05177 whole entry): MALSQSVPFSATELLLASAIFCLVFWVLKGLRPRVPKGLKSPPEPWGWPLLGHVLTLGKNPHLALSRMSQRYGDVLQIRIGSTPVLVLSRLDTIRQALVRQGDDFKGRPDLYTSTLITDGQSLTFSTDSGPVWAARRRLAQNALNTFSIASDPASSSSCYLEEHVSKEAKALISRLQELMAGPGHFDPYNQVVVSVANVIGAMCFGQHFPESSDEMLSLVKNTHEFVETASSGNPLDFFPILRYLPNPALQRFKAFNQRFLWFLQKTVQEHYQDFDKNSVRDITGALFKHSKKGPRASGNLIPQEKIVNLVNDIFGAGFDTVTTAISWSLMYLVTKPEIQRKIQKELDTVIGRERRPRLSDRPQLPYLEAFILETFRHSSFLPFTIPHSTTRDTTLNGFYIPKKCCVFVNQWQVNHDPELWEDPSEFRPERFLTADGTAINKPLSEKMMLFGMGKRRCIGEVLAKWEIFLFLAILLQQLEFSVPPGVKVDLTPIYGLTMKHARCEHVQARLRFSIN

Test [5] is described as follows: Trypanosoma cruzi growth suppression in host cells – NIH3T3 host cells, beta-gal luminescence, confirmation (AID 2044).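 Further: intracellular parasites grown in NIH/3T3 mouse fibroblasts as host cells; luminescent beta-galactosidase reporter signal from transgenic T. cruzi replicating inside host cells; inhibitors lower the luminescence signal.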 Format: functional, cell-based.
A short description of test [6]: NIH3T3 cell viability loss – ATP luminescence, mouse fibroblasts, counter-screen, dose response (AID 2010).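 Further: cells exposed to compound for about 90 hours before reading.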 In kind it is functional, cell-based.
In test [7] the target is T3, Heat shock factor protein 1 (Mus musculus, UniProt P38532).
T3 sequence (P38532 whole entry): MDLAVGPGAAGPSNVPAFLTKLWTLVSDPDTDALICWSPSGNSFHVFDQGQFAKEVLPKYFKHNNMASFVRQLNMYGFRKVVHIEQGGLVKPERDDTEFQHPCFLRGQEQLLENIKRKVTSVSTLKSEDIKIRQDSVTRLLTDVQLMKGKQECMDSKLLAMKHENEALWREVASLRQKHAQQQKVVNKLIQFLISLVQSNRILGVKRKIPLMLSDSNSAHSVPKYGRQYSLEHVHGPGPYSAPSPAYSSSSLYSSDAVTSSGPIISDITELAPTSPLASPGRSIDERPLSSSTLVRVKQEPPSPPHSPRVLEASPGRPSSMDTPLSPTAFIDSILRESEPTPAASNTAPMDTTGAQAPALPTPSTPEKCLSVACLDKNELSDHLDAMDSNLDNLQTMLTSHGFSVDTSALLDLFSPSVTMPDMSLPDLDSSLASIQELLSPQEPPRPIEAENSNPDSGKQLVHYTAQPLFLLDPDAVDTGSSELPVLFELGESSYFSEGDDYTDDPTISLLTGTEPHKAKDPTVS
Nature of the test: enhancement of HSF1-driven luciferase signal – cell-based, NIH3T3, luminescence, dose retest, confirmation (AID 435004).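 Further: stress induced by proteasome inhibitor MG132 added 30 min after compound; luciferase reporter driven by HSF1 response element in NIH3T3 cells; actives raise luminescence as potentiators of the MG132 stress response.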 In kind it is functional.

Test [8] addresses T4, Rac GTPase-activating protein 1 (Homo sapiens, UniProt Q9H0H5).
T4 sequence (Q9H0H5 whole entry): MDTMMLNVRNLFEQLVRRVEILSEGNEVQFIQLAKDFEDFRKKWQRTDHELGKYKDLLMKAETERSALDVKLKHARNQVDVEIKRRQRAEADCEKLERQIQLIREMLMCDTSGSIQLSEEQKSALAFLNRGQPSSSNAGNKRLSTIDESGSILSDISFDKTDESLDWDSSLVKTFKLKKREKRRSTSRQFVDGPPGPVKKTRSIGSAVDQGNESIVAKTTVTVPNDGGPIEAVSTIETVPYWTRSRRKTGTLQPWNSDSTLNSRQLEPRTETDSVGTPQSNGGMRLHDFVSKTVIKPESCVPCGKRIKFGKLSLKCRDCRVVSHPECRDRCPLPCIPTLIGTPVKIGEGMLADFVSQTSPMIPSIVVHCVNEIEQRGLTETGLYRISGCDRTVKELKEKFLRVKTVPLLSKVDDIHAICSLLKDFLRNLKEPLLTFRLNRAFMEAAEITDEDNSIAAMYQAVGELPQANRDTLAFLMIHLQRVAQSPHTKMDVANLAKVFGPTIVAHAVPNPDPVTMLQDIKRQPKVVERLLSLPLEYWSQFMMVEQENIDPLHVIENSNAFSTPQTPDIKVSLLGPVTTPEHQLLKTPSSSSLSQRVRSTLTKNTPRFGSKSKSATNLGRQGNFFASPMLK
Nature of the test: blockers of MgcRacGAP-driven Rac1 GTP hydrolysis – biochemical, ADP Hunter fluorescence, primary and confirmatory, confirmation (AID 624330). In kind it is functional.

The source made the active and inactive calls.

The results in this text go back to ChEMBL document CHEMBL1201862, “PubChem BioAssay data set” (2004).

Sequence of FAD-linked sulfhydryl oxidase ALR (P55789 whole entry): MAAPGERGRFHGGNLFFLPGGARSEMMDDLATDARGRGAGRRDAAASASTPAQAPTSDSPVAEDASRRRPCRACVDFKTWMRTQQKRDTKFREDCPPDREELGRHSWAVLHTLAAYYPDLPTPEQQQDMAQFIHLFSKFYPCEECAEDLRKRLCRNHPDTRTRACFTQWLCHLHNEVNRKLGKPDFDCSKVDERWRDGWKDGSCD
Sequence of Cytochrome P450 2C19 (P33261 whole entry): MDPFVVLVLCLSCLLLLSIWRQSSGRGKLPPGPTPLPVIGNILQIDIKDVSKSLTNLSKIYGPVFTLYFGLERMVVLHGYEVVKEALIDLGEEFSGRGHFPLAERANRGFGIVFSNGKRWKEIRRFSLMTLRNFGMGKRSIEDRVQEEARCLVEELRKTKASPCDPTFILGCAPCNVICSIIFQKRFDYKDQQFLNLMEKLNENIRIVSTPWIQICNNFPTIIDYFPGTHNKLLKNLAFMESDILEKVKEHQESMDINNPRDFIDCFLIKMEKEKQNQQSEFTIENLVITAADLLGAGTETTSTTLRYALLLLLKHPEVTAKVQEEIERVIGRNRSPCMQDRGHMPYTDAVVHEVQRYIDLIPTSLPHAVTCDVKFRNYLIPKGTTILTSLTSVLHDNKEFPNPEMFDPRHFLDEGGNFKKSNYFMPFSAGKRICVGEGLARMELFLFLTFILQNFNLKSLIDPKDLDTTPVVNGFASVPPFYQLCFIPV

For `COc1ccc(OCc2cc(C(=O)N(C)Cc3cc(C)no3)no2)c(Cl)c1`, the EC50 was 1.42 µM (active) in test [1], 65.1 µM (active) in test [2] and 10.1 µM (active) in the test with H4.
As for `O=C(NCC(=O)N1CCN(c2ccccc2O)CC1)c1ccco1`, the AC50 in test [3] is 2.22 µM (active).
Take `c1ccc(-c2onc(-c3ccco3)c2-c2ccc3[nH]ccc3c2)cc1`: the EC50 in [1] was 14.3 µM (active); in test [2] it was 63.1 µM (active); in [4], 3.19 µM (active); in the test with H4, 23.7 µM (active); on Streptokinase A it was 4.99 µM (active); with Streptococcus, 26.4 µM (active).
For `CC(C)(C)OC(=O)NCc1nnc(S)n1C1CC1`, in [3], the AC50 was 5.46 µM (active).
In the case of `CNC(C)C#Cc1ccc2sc3cc(OC)c(OC)cc3c(=O)c2c1` (configuration not stated), the results for the EC50 (in test [1]; in [2]; in the test on H4) were 22.3 µM (active), 15.3 µM (active) and > 120 µM (not active), respectively.
Taken in the same sequence, the figures for `O=c1c2c(-c3ccccc3)ccnc2[nH]n1-c1ccccc1` were > 120 µM (not active), 10.8 µM (active) and > 120 µM (not active).
`Cc1ccc(OC(=O)NC2CCS(=O)(=O)C2)cc1C` (configuration not stated): the EC50 (in [1]; in test [2]; in the test on H4) was > 120 µM (not active) throughout.
Regarding `O=C(c1cccc(C(F)(F)F)c1)C1CCCN(C(=O)c2cc(C3CC3)[nH]n2)C1` (configuration not stated), the concentration at half-maximal activity (AC50) in test [3] is 0.392 µM (active).
Regarding `Cc1ccc(C)c(NC(=O)NNS(=O)(=O)c2ccc(C)c(C)c2)c1`, in [3], the AC50 is 3.8 µM (active).
Consider `Cc1c(C(=O)O)c2cc(O)ccc2n1-c1ccccc1`, for which, in test [3], the AC50 is 5.18 µM (active).
`CCc1ccc(CN(C(=O)c2cc3ccccc3oc2=O)C2CCS(=O)(=O)C2)cc1` (configuration not stated): the concentration for a half-maximal effect (EC50) in [1] was 27.7 µM (active); in test [2], 28.6 µM (active); in the test with H4, 0.547 µM (active). Besides, the AC50 was 20 µM (inconclusive) at Cytochrome P450 2C19 and 28.2 µM (inconclusive) on Cytochrome P450 1A2.
On to `O=C(COc1ccc(Br)cc1Br)NC(=O)NC1CCCC1`, for which the EC50 in [1] was 8.14 µM (active); in [2], 33.4 µM (active); with H4, > 120 µM (not active).
Taken in the same sequence, the figures for `Cc1ccccc1C(=O)ON=C(N)c1cccc([N+](=O)[O-])c1` were 13.8 µM (active), 17 µM (active) and 27.5 µM (active).
`[O-]c1c[n+](-c2ccc(-[n+]3cc([O-])on3)cc2)no1`: the concentration at half-maximal activity (AC50) in test [3] was 4.1 µM (active).
Turning to `Nc1nc(CSCc2ccccc2)nc(N2CCOCC2)n1`, the EC50 in [1] is > 120 µM (not active); in test [2], 6.28 µM (active); with H4, 50.7 µM (active).
For the compound `CC1CCC(NC(=O)Cn2c(=O)[nH]c3ccsc3c2=O)CC1` (configuration not stated), the EC50 is 12.4 µM (active) in test [1], 29.3 µM (active) in test [2] and 90.1 µM (active) with H4.
On to `C=CCn1c(SCC(N)=O)nnc1-c1cc2c(s1)CCC(CC)C2` (configuration not stated), for which the EC50 is 3 µM (active) in test [1], 27.7 µM (active) in [2] and 5.64 µM (active) in the test on H4.
For `COc1cccc(Oc2nnnn2-c2ccccc2)c1`, the EC50 was 0.44 µM (active) in test [1], 54.7 µM (active) in [2] and > 120 µM (not active) in the test on H4.
As to `Cc1ccc(C(=O)CCC2CCCCC2=O)cc1` (configuration not stated), the EC50 was 13.2 µM (active) in [1], 36.7 µM (active) in [2] and 28.4 µM (active) in the test with H4.
Take `Cc1ccc2occ(C3N[C@H](C(=O)O)CS3)c(=O)c2c1` (some centres not stated): in test [3], the AC50 is 0.392 µM (active).
Turning to `CCOc1ccc2nc(N3CCCC(C(=O)NCC4CCCO4)C3)sc2c1` (configuration not stated), the EC50 is 17.5 µM (active) in [1], 17.1 µM (active) in [2] and 17.2 µM (active) in the test with H4.
For the compound `CCN(CC)c1ccc(NS(=O)(=O)c2ccc(-c3ccc(O)nn3)o2)c(C)c1`, the AC50 in test [3] was 0.382 µM (active).
As to `CCC1(C(=O)O)NC(c2cc(OC)ccc2O)C2C(=O)N(Cc3ccccc3)C(=O)C21` (configuration not stated), the AC50 in test [3] is 7.15 µM (active).
As to `Cc1cc2c3c(c1)C1(C(=O)N3C(C)(C)CC2C)C(C#N)=C(N)Oc2cc(O)ccc21` (configuration not stated), the 50% effective concentration (EC50) in [5] is 1.41 µM (active); in test [6], > 60 µM (not active); in test [7] it was 54.7 µM (active).
Consider `Cc1ccc(-c2c3c(=O)n(C)c(=O)n(C)c3cn2-n2cnnc2)cc1`, for which the EC50 in test [7] is 13.5 µM (active). In addition, in test [3], the AC50 is 9.89 µM (active).
`CCc1ccccc1NC(=O)CC(c1ccc(OC)cc1)n1cccc1` (configuration not stated): in test [7], the EC50 was > 260 µM (inactive).
Regarding `Oc1ccccc1/C=N/Nc1ccccc1`, the concentration at half-maximal activity (AC50) in [3] was 7.86 µM (active).
For `CCN(CC)C(=N)/C(C#N)=N/Nc1ccc(C)cc1`, the AC50 in [3] is 0.035 µM (active).
Take `Cn1cccc1/C=N/N1CCN(c2ccccc2)CC1`: the AC50 in [3] is 85.3 µM (active). The 50% inhibitory concentration (IC50) in [8] was 84.2 µM (active).
With `CCCn1c2ccc(/C(C)=N\O)cc2c2cc(/C(C)=N/O)ccc21`, in [3], the AC50 was 0.028 µM (active).

The EC50 is the midpoint of the concentration-response curve. One may read the AC50 as the concentration giving half of the maximal activity seen. By IC50 is commonly meant the point on the concentration scale where inhibition reaches its midpoint.
